Values joined by “and” are separate entries in the source; they are usually repeats but may differ in a detail not shown here. Equal entries are not always repeated. ± gives the expanded uncertainty stated by the source.
Conditions: Gas, Frequency=0.005 MHz, Spherical cavity resonance method

## CC [ethane]
280.01 K, 500.43 kPa
  speed of sound: 294.64 ± 0.049 m/s and 294.65 ± 0.049 m/s and 294.64 ± 0.048 m/s
280.02 K, 500.43 kPa
  speed of sound: 294.65 ± 0.049 m/s and 294.65 ± 0.05 m/s
280.02 K, 500.44 kPa
  speed of sound: 294.65 ± 0.049 m/s
319.55 K, 463.5 kPa
  speed of sound: 316.22 ± 0.048 m/s
319.55 K, 463.51 kPa
  speed of sound: 316.22 ± 0.048 m/s
319.95 K, 464.08 kPa
  speed of sound: 316.4 ± 0.048 m/s
319.95 K, 464.09 kPa
  speed of sound: 316.4 ± 0.048 m/s
324.99 K, 479.74 kPa
  speed of sound: 318.64 ± 0.049 m/s
324.99 K, 479.75 kPa
  speed of sound: 318.65 ± 0.051 m/s
325 K, 479.75 kPa
  speed of sound: 318.65 ± 0.05 m/s and 318.65 ± 0.051 m/s
325 K, 479.76 kPa
  speed of sound: 318.65 ± 0.05 m/s
339.37 K, 492.93 kPa
  speed of sound: 325.4 ± 0.075 m/s
339.89 K, 493.66 kPa
  speed of sound: 325.64 ± 0.075 m/s
359.27 K, 522.1 kPa
  speed of sound: 334.3 ± 0.049 m/s
359.27 K, 522.11 kPa
  speed of sound: 334.3 ± 0.049 m/s
359.85 K, 523.03 kPa
  speed of sound: 334.57 ± 0.048 m/s and 334.57 ± 0.05 m/s
365 K, 479.42 kPa
  speed of sound: 337.34 ± 0.051 m/s and 337.34 ± 0.052 m/s
365.01 K, 479.42 kPa
  speed of sound: 337.35 ± 0.051 m/s and 337.35 ± 0.052 m/s
365.01 K, 479.43 kPa
  speed of sound: 337.34 ± 0.051 m/s and 337.35 ± 0.053 m/s
379.19 K, 551.11 kPa
  speed of sound: 342.95 ± 0.049 m/s
379.76 K, 551.9 kPa
  speed of sound: 343.19 ± 0.049 m/s
379.77 K, 551.9 kPa
  speed of sound: 343.19 ± 0.049 m/s
399.22 K, 579.97 kPa
  speed of sound: 351.41 ± 0.049 m/s
399.8 K, 580.93 kPa
  speed of sound: 351.69 ± 0.05 m/s and 351.69 ± 0.049 m/s
404.98 K, 531.39 kPa
  speed of sound: 354.23 ± 0.05 m/s
404.98 K, 531.4 kPa
  speed of sound: 354.23 ± 0.051 m/s
404.98 K, 531.41 kPa
  speed of sound: 354.22 ± 0.05 m/s
419.45 K, 608.87 kPa
  speed of sound: 359.75 ± 0.053 m/s
419.46 K, 608.88 kPa
  speed of sound: 359.76 ± 0.053 m/s
419.91 K, 609.51 kPa
  speed of sound: 359.94 ± 0.054 m/s
419.92 K, 609.52 kPa
  speed of sound: 359.95 ± 0.053 m/s
444.98 K, 496.44 kPa
  speed of sound: 370.72 ± 0.052 m/s
444.98 K, 496.45 kPa
  speed of sound: 370.72 ± 0.053 m/s and 370.72 ± 0.052 m/s and 370.72 ± 0.054 m/s
444.99 K, 496.45 kPa
  speed of sound: 370.72 ± 0.053 m/s
484.95 K, 497.52 kPa
  speed of sound: 386.13 ± 0.056 m/s
484.95 K, 497.53 kPa
  speed of sound: 386.13 ± 0.056 m/s
484.95 K, 497.54 kPa
  speed of sound: 386.13 ± 0.055 m/s
484.95 K, 497.55 kPa
  speed of sound: 386.14 ± 0.055 m/s
484.95 K, 497.56 kPa
  speed of sound: 386.14 ± 0.055 m/s
484.96 K, 497.55 kPa
  speed of sound: 386.14 ± 0.055 m/s and 386.14 ± 0.056 m/s
484.96 K, 539.51 kPa
  speed of sound: 386 ± 0.055 m/s
484.96 K, 539.52 kPa
  speed of sound: 386 ± 0.056 m/s and 386 ± 0.057 m/s

Reference: the NIST ThermoML archive (doi:10.1016/j.jct.2015.07.005)
